Tested on: 889142-216-R-J1-PDC complex spheroid viability
Assay: Anticancer human tumor 889142-216-R-J1-PDC patient-derived bladder carcinoma cell line growth inhibition [POLQ]
Details: for IC50: curve of first compound; for viability, T/C: stronger effect = lower value
In short: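 Three-cell-type spheroids modelling solid tumor plus stroma served as the readout system; POL inhibitors were tested individually and in combination, concentration ranges set by clinical Cmax where known.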

[1] = second compound 0.0316 µM, first compound 0.0316 µM
[2] = second compound 0.0316 µM, first compound 0.1 µM
[3] = second compound 0.0316 µM, first compound 0.316 µM
[4] = second compound 0.0316 µM, first compound 1 µM
[5] = second compound 0.0316 µM, first compound 3.16 µM
[6] = second compound 0.0316 µM, first compound 10 µM
[7] = second compound 0.1 µM, first compound 0.0316 µM
[8] = second compound 0.1 µM, first compound 0.1 µM
[9] = second compound 0.1 µM, first compound 0.316 µM
[10] = second compound 0.1 µM, first compound 1 µM
[11] = second compound 0.1 µM, first compound 3.16 µM
[12] = second compound 0.1 µM, first compound 10 µM
[13] = second compound 0.316 µM, first compound 0.0316 µM
[14] = second compound 0.316 µM, first compound 0.1 µM
[15] = second compound 0.316 µM, first compound 0.316 µM
[16] = second compound 0.316 µM, first compound 1 µM
[17] = second compound 0.316 µM, first compound 3.16 µM
[18] = second compound 0.316 µM, first compound 10 µM
[19] = second compound 1 µM, first compound 0.0316 µM
[20] = second compound 1 µM, first compound 0.1 µM
[21] = second compound 1 µM, first compound 0.316 µM
[22] = second compound 1 µM, first compound 1 µM
[23] = second compound 1 µM, first compound 3.16 µM
[24] = second compound 1 µM, first compound 10 µM
[25] = second compound 3.16 µM, first compound 0.0316 µM
[26] = second compound 3.16 µM, first compound 0.1 µM
[27] = second compound 3.16 µM, first compound 0.316 µM
[28] = second compound 3.16 µM, first compound 1 µM
[29] = second compound 3.16 µM, first compound 3.16 µM
[30] = second compound 3.16 µM, first compound 10 µM
[31] = second compound 10 µM, first compound 0.0316 µM
[32] = second compound 10 µM, first compound 0.1 µM
[33] = second compound 10 µM, first compound 0.316 µM
[34] = second compound 10 µM, first compound 1 µM
[35] = second compound 10 µM, first compound 3.16 µM
[36] = second compound 10 µM, first compound 10 µM
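Further: spheroids exposed to compounds for seven days.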
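Wherever viability, T/C is given: 100% = DMSO vehicle control viability.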

O=C(c1cc(Cc2n[nH]c(=O)c3ccccc23)ccc1F)N1CCN(C(=O)C2CC2)CC1 + COC1C(OC(N)=O)C(O)C(Oc2ccc3c(O)c(NC(=O)c4ccc(O)c(CC=C(C)C)c4)c(=O)oc3c2C)OC1(C)C
IC50 (second compound 0.0316 µM): > 10 µM | IC50 (second compound 0.1 µM): > 10 µM | IC50 (second compound 0.316 µM): > 10 µM | IC50 (second compound 1 µM): > 10 µM | IC50 (second compound 3.16 µM): > 10 µM | IC50 (second compound 10 µM): > 10 µM | viability, T/C [1]: 93% | viability, T/C [2]: 92.2% | viability, T/C [3]: 77.2% | viability, T/C [4]: 103% | viability, T/C [5]: 71% | viability, T/C [6]: 68.6% | viability, T/C [7]: 101% | viability, T/C [8]: 117% | viability, T/C [9]: 104% | viability, T/C [10]: 109% | viability, T/C [11]: 80.5% | viability, T/C [12]: 83.5% | viability, T/C [13]: 94.4% | viability, T/C [14]: 111% | viability, T/C [15]: 114% | viability, T/C [16]: 102% | viability, T/C [17]: 95.5% | viability, T/C [18]: 72% | viability, T/C [19]: 122% | viability, T/C [20]: 116% | viability, T/C [21]: 109% | viability, T/C [22]: 79.3% | viability, T/C [23]: 82.5% | viability, T/C [24]: 65.5% | viability, T/C [25]: 123% | viability, T/C [26]: 109% | viability, T/C [27]: 104% | viability, T/C [28]: 101% | viability, T/C [29]: 78.4% | viability, T/C [30]: 75.5% | viability, T/C [31]: 129% | viability, T/C [32]: 106% | viability, T/C [33]: 84.4% | viability, T/C [34]: 84.8% | viability, T/C [35]: 103% | viability, T/C [36]: 77.9%

O=c1[nH]cc(F)c(=O)[nH]1 + COC1C(OC(N)=O)C(O)C(Oc2ccc3c(O)c(NC(=O)c4ccc(O)c(CC=C(C)C)c4)c(=O)oc3c2C)OC1(C)C
IC50 (second compound 0.0316 µM): > 10 µM | IC50 (second compound 0.1 µM): > 10 µM | IC50 (second compound 0.316 µM): > 10 µM | IC50 (second compound 1 µM): > 10 µM | IC50 (second compound 3.16 µM): > 10 µM | IC50 (second compound 10 µM): > 10 µM | viability, T/C [1]: 98.8% | viability, T/C [2]: 99.2% | viability, T/C [3]: 94.5% | viability, T/C [4]: 75% | viability, T/C [5]: 74% | viability, T/C [6]: 70.6% | viability, T/C [7]: 121% | viability, T/C [8]: 107% | viability, T/C [9]: 75.3% | viability, T/C [10]: 67.2% | viability, T/C [11]: 75.2% | viability, T/C [12]: 77.5% | viability, T/C [13]: 112% | viability, T/C [14]: 113% | viability, T/C [15]: 95.1% | viability, T/C [16]: 83.6% | viability, T/C [17]: 85.8% | viability, T/C [18]: 72.6% | viability, T/C [19]: 106% | viability, T/C [20]: 123% | viability, T/C [21]: 92.5% | viability, T/C [22]: 78.8% | viability, T/C [23]: 77.6% | viability, T/C [24]: 67.8% | viability, T/C [25]: 112% | viability, T/C [26]: 90.2% | viability, T/C [27]: 73.3% | viability, T/C [28]: 79.3% | viability, T/C [29]: 78.9% | viability, T/C [30]: 78% | viability, T/C [31]: 90.5% | viability, T/C [32]: 103% | viability, T/C [33]: 87.8% | viability, T/C [34]: 89.7% | viability, T/C [35]: 70.5% | viability, T/C [36]: 69.8%
